From US20260263479A1, “KRAS G12D INHIBITORS AND USES THEREOF” (SUZHOU ZANRONG PHARMA LIMITED, priority 2023, published 2026)
pIC50: −log10 of the molar value.

Test system: PANC-1 pERK
Assay: Phospho-ERK 1/2 assay
Format: cell-based
Details: Homo sapiens, PANC-1, 3 h, PANC-1 cells, 3 hours incubation with compound
Description: Allow PNAC-1 cell growth in a T75 flask in DMEM and 10% 1 fetal calf serum (FCS; Gibco®), using standard tissue culture procedures until ~80% confluency is achieved. Day 1, seed 6000 cells/well in 384 well plate and incubate at 37° C., 5% CO2. Add diluted compound by Echo 550, final DMSO is 0.5%, incubate cells at 37° C., 5% CO2 for 3 hours. Then, remove medium and fix cells with 3.7% formaldehyde in PBS (PFA) by Apricot. Wash with PBS once. Permeabilize cells with cold 100% methanol and repeat wash once with PBS once. Add Li-Cor blocking buffer to each well and incubate 1.5 hours at RT. Remove blocking buffer and add primary antibody mixture (rabbit anti pERK, mouse anti GAPDH). Incubate at 4° C. overnight. Day 2, wash with PBST (Tween-20 in PBS) with total 3 times and then add secondary antibody mixture (goat anti rabbit 800CW (1:800 dilution in the combined solution) and goat anti mouse 680RD (1:800 dilution in the combined solution)), incubate for 60 minutes at RT away from light. Repeat washing with PBST 3 times. After final wash, centrifuge plate up-side-down at 1000 rpm to remove wash solution completely from wells. Before plate scanning, clean the bottom plate surface and the Odyssey® Imager scanning bed (if applicable) with moist, lint-free tissue to avoid any obstructions during scanning. Scan plate with detection in both 700 and 800 nm channels.

Structure (SMILES)	pIC50
C#Cc1c(F)ccc2cccc(-c3nc4c5c(cc(OC[C@@]67CCCN6C/C(=C/F)C7)nc5c3F)N3C[C@H]5CC[C@H](N5)[C@H]3[C@H](C)O4)c12 [Example 603]	7.32
C#Cc1c(F)ccc2cccc(-c3nc4c5c(cc(OCC6(CN7CCOC[C@H]7C)CC6)nc5c3F)N3C[C@H]5CC[C@H](N5)[C@H]3[C@H](C)O4)c12 [Example 611]	7.85
Cc1cc(N)nc(-c2c(F)c3c4c(cc(OCC5(CN6CCOC[C@H]6C)CC5)nc4c2F)N2C[C@H]4CC[C@H](N4)[C@H]2[C@H](C)O3)c1C(F)(F)F [Example 613a]	6.95
C#Cc1c(F)ccc2cccc(-c3nc4c5c(cc(OC[C@@]67CCCN6C[C@H](F)C7)nc5c3F)N3C[C@H]5CC[C@H](N5)[C@H]3[C@H](C)O4)c12 [Example 571]	7.77
C#Cc1c(F)ccc2cc(O)cc(-c3nc4c5c(cc(OC[C@@]67CCCN6C[C@H](F)C7)nc5c3F)N3C[C@@]5(C)CC[C@H](N5)[C@H]3[C@H](C)O4)c12 [Example 614]	8.09
C=C1CN2CC(=C)CC2(COc2cc3c4c(nc(-c5cc(O)cc6ccc(F)c(CC)c56)c(F)c4n2)O[C@@H](C)[C@@H]2[C@@H]4CC[C@H](CN32)N4)C1 [Example 570]	7.12
CCc1c(F)ccc2cc(O)cc(-c3nc4c5c(cc(OC[C@@]67CCCN6C[C@H](F)C7)nc5c3F)N3C[C@@]5(C)CC[C@H](N5)[C@H]3[C@H](C)O4)c12 [Example 615]	7.60
C#Cc1c(F)ccc2cccc(-c3nc4c5c(cc(OC[C@@]67CCCN6CC(=C)C7)nc5c3F)N3C[C@H]5CC[C@H](N5)[C@H]3CO4)c12 [Example 78, (5aS,6S,9R)-2-(8-ethynyl-7-fluoronaphthalen-1-yl)-1-fluoro-13-(((S)-2-methylenetetrahydro-1H-pyrrolizin-7a (5H)-yl)methoxy)-5a,6,7,8,9,10-hexahydro-5H-6,9-epiminoazepino[2′,1′: 3,4][1,4]oxazepino[5,6,7-de][1,6]naphthyridine]	6.33
C#Cc1c(F)ccc2cccc(-c3nc4c5c(cc(OC[C@@]67CC(=C)CN6C[C@H](OC)C7)nc5c3F)N3C[C@H]5CC[C@H](N5)[C@H]3[C@H](C)O4)c12 [Example 609]	8.02
C#Cc1c(F)ccc2cc(O)cc(-c3nc4c5c(cc(OC[C@@]67CCCN6CC(=C)C7)nc5c3F)N3C[C@H]5CC[C@H](N5)[C@H]3CO4)c12 [Example 2, 5-ethynyl-6-fluoro-4-((5aS,6S,9R)-1-fluoro-13-(((S)-2-methylenetetrahydro-1H-pyrrolizin-7a (5H)-yl)methoxy)-5a,6,7,8,9,10-hexahydro-5H-6,9-epiminoazepino[2′,1′: 3,4][1,4]oxazepino[5,6,7-de][1,6]naphthyridin-2-yl)naphthalen-2-ol]	7.85
C=C1CN2CCC[C@@]2(COc2cc3c4c(nc(-c5cc(O)cc6ccc(F)c(CC)c56)c(F)c4n2)OC[C@@H]2[C@@H]4CC[C@H](CN32)N4)C1 [Example 40, 5-ethyl-6-fluoro-4-((5aS,6S,9R)-1-fluoro-13-(((S)-2-methylenetetrahydro-1H-pyrrolizin-7a (5H)-yl)methoxy)-5a,6,7,8,9,10-hexahydro-5H-6,9-epiminoazepino[2′,1′: 3,4][1,4]oxazepino[5,6,7-de][1,6]naphthyridin-2-yl)naphthalen-2-ol]	7.80
C=C1CN2CCC[C@@]2(COc2cc3c4c(nc(-c5cccc6ccc(F)c(CC)c56)c(F)c4n2)O[C@@H](C)[C@@H]2[C@@H]4CC[C@H](CN32)N4)C1 [Example 606]	6.61
C#Cc1c(F)ccc2cc(O)cc(-c3nc4c5c(cc(OC[C@@]67CCCN6C/C(=C\F)C7)nc5c3F)N3C[C@H]5CC[C@H](N5)[C@H]3[C@H](C)O4)c12 [Example 602]	8.82
C#Cc1c(F)ccc2cc(O)cc(-c3nc4c5c(cc(OCC67CC(=C)CN6CC(=C)C7)nc5c3F)N3C[C@H]5CC[C@H](N5)[C@H]3CO4)c12 [Example 4, 4-((5aS,6S,9R)-13-((2,6-dimethylenetetrahydro-1H-pyrrolizin-7a (5H)-yl)methoxy)-1-fluoro-5a,6,7,8,9,10-hexahydro-5H-6,9-epiminoazepino[2′,1′: 3,4][1,4]oxazepino[5,6,7-de][1,6]naphthyridin-2-yl)-5-ethynyl-6-fluoronaphthalen-2-ol]	7.47
Cc1cc(N)nc(-c2nc3c4c(cc(OC[C@@]56CCCN5C[C@H](F)C6)nc4c2F)N2C[C@H]4CC[C@H](N4)[C@H]2[C@H](C)O3)c1C(F)(F)F [Example 574]	7.48
C#Cc1c(F)ccc2cc(O)cc(-c3nc4c5c(cc(OCC67CCCN6CC(=C)C7)nc5c3F)N3C[C@H]5CC[C@H](N5)[C@H]3[C@H](C)O4)c12 (some centres unmarked) [Example 566]	8.54
CCc1c(F)ccc2cc(O)cc(-c3nc4c5c(cc(OC[C@@]67CCCN6C[C@H](F)C7)nc5c3F)N3C[C@H]5CC[C@H](N5)[C@H]3[C@H](C)O4)c12 [Example 568, 5-ethyl-6-fluoro-4-((5S,5aS,6S,9R)-1-fluoro-13-(((2R,7aS)-2-fluorotetrahydro-1H-pyrrolizin-7a (5H)-yl)methoxy)-5-methyl-5a,6,7,8,9,10-hexahydro-5H-6,9-epiminoazepino[2′,1′: 3,4][1,4]oxazepino[5,6,7-de][1,6]naphthyridin-2-yl)naphthalen-2-ol]	8.25
C#Cc1c(F)ccc2cccc(-c3nc4c5c(cc(OCC67CCCN6CC(=C)C7)nc5c3F)N3C[C@H]5CC[C@H](N5)[C@H]3[C@H](C)O4)c12 (some centres unmarked) [Example 572]	7.85
C#Cc1c(F)ccc2cccc(-c3nc4c5c(cc(OC[C@]67CC(=C)CN6C[C@@H](F)C7)nc5c3F)N3C[C@H]5CC[C@H](N5)[C@H]3[C@H](C)O4)c12 [Example 607]	6.70
C#Cc1c(F)ccc2cccc(-c3nc4c5c(cc(OC[C@@]67CCCN6CC6(CC6(F)F)C7)nc5c3F)N3C[C@H]5CC[C@H](N5)[C@H]3[C@H](C)O4)c12 (some centres unmarked) [Example 604]	6.74
C=C1CN2CCCC2(COc2cc3c4c(nc(-c5cc(O)cc6ccc(F)c(CC)c56)c(F)c4n2)O[C@@H](C)[C@@H]2[C@@H]4CC[C@H](CN32)N4)C1 (some centres unmarked) [Example 569]	8.77
C#Cc1c(F)ccc2cc(O)cc(-c3nc4c5c(cc(OCC67CC(=C)CN6CC(=C)C7)nc5c3F)N3C[C@H]5CC[C@H](N5)[C@H]3[C@H](C)O4)c12 [Example 567]	9.02
CCc1c(F)ccc2cc(O)cc(-c3nc4c5c(cc(OC[C@@]67CCCN6C/C(=C\F)C7)nc5c3F)N3C[C@H]5CC[C@H](N5)[C@H]3[C@H](C)O4)c12 [Example 601]	8.09
C#Cc1c(F)ccc2cccc(-c3nc4c5c(cc(OC[C@@]67CC(=C)CN6C[C@H](F)C7)nc5c3F)N3C[C@H]5CC[C@H](N5)[C@H]3[C@H](C)O4)c12 [Example 608]	6.60
C#Cc1c(F)ccc2cc(O)cc(-c3nc4c5c(cc(OC[C@@]67CCCN6C[C@H](F)C7)nc5c3F)N3C[C@H]5CC[C@H](N5)[C@H]3[C@H](C)O4)c12 [Example 565, 5-ethynyl-6-fluoro-4-((5S,5aS,6S,9R)-1-fluoro-13-(((2R,7aS)-2-fluorotetrahydro-1H-pyrrolizin-7a (5H)-yl)methoxy)-5-methyl-5a,6,7,8,9,10-hexahydro-5H-6,9-epiminoazepino[2′,1′: 3,4][1,4]oxazepino[5,6,7-de][1,6]naphthyridin-2-yl)naphthalen-2-ol]	8.92

Same assay, conditions: PANC-1 cells, 3 hours incubation with compound

Structure (SMILES)	pIC50
C#Cc1c(F)ccc2cc(O)cc(-c3c(F)c4c5c(cc(OC[C@@]67CCCN6C[C@H](F)C7)nc5c3F)N3C[C@H]5CC[C@H](N5)[C@H]3[C@H](C)O4)c12 (single isomer, unassigned) [Example 577a]	9.17
C=C1CN2CC(=C)CC2(COc2cc3c4c(nc(-c5cc(O)cc6ccc(F)c(CC)c56)c(F)c4n2)OC[C@@H]2[C@@H]4CC[C@H](CN32)N4)C1 [compound 42]	6.77
C#Cc1cccc2cccc(-c3nc4c5c(cc(OC[C@@]67CCCN6CC(=C)C7)nc5c3F)N3C[C@H]5CC[C@H](N5)[C@H]3[C@H](C)O4)c12 [Example 605]	7.60
C#Cc1c(F)ccc2cc(O)cc(-c3c(F)c4c5c(cc(OC[C@@]67CCCN6C[C@H](F)C7)nc5c3F)N3C[C@H]5CC[C@H](N5)[C@H]3[C@H](C)O4)c12 (single isomer, unassigned) [Example 577b]	7.64

Molecular target: T1, P-glycoprotein (Pgp) (Homo sapiens, UniProt P08183)
T1 construct: expressed in transfected cells; host or cells: MDCK-MDR1 cells
Assay: MDCK-MDR1 Pgp assessment
Format: in vitro ADME
Details: dog, MDCK-MDR1 cells, 37° C., read-out: Pgp Efflux Ratio (Pexact)
Description: Efflux transport mediated by P-glycoprotein (Pgp) was assessed by MDCK-MDR1 cells. The final concentrations of test compounds and control compound were at 1 μM. The multi-well insert plate was incubated at 37° C. for 2 hours. In order to reliably measure passive permeability coefficients, Pexact was reported, which automatically corrects for loss of compound.

T1 sequence (P08183 whole entry): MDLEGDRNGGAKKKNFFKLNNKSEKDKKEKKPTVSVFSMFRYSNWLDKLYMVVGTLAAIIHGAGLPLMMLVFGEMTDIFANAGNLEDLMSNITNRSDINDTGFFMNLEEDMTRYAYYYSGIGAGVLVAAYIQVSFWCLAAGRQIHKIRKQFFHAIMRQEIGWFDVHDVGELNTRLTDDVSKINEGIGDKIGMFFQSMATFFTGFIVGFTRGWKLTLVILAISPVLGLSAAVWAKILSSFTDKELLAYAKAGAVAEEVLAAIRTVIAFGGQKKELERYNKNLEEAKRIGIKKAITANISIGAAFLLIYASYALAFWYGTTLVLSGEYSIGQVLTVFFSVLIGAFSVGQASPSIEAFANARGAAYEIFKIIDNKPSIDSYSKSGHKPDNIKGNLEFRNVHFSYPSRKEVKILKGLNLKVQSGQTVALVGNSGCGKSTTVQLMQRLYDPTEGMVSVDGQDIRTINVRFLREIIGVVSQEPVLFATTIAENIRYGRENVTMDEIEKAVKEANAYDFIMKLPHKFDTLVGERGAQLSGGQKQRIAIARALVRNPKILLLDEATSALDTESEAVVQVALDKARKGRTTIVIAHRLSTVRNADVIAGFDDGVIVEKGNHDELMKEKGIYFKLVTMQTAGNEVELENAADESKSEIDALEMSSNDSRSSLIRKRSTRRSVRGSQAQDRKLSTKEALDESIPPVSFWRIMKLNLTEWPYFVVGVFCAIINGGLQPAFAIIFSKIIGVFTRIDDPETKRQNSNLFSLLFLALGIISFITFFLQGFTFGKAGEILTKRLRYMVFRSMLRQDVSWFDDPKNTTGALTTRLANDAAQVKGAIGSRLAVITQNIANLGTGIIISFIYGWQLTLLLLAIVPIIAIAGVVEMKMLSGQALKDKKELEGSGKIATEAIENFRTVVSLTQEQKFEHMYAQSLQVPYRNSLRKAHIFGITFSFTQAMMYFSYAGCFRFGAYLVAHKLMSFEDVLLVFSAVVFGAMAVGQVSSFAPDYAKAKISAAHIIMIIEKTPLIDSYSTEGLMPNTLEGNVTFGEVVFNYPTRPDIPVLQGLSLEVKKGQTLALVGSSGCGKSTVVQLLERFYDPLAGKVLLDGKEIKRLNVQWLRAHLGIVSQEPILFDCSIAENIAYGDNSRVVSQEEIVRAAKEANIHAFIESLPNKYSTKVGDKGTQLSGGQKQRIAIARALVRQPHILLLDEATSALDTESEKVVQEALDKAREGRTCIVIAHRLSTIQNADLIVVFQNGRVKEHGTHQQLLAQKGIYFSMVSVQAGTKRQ

Structure (SMILES)	efflux ratio at 2 h, 1 μM
C#Cc1c(F)ccc2cc(O)cc(-c3nc4c5c(cc(OC[C@@]67CCCN6CC(=C)C7)nc5c3F)N3C[C@H]5CC[C@H](N5)[C@H]3CO4)c12 [Example 2, 5-ethynyl-6-fluoro-4-((5aS,6S,9R)-1-fluoro-13-(((S)-2-methylenetetrahydro-1H-pyrrolizin-7a (5H)-yl)methoxy)-5a,6,7,8,9,10-hexahydro-5H-6,9-epiminoazepino[2′,1′: 3,4][1,4]oxazepino[5,6,7-de][1,6]naphthyridin-2-yl)naphthalen-2-ol]	5.37
C#Cc1c(F)ccc2cc(O)cc(-c3nc4c5c(cc(OCC67CCCN6CC(=C)C7)nc5c3F)N3C[C@H]5CC[C@H](N5)[C@H]3[C@H](C)O4)c12 (some centres unmarked) [Example 566]	13
C#Cc1c(F)ccc2cc(O)cc(-c3nc4c5c(cc(OC[C@@]67CCCN6C[C@H](F)C7)nc5c3F)N3C[C@H]5CC[C@H](N5)[C@H]3[C@H](C)O4)c12 [Example 565, 5-ethynyl-6-fluoro-4-((5S,5aS,6S,9R)-1-fluoro-13-(((2R,7aS)-2-fluorotetrahydro-1H-pyrrolizin-7a (5H)-yl)methoxy)-5-methyl-5a,6,7,8,9,10-hexahydro-5H-6,9-epiminoazepino[2′,1′: 3,4][1,4]oxazepino[5,6,7-de][1,6]naphthyridin-2-yl)naphthalen-2-ol]	5.25
